Like-named read-outs stand apart in the source and are kept apart here. Marks after values point to notes of the source that are not given here.
How the values were obtained:
[1] = tested on: bovine vascular smooth muscle cells (bVSMCs); assay: o-Cresolphthalein Ca2+ assay, bVSMC GAD calcification model (Examples 4 and 5); assay type: cell-based; settings: GAD-treated bVSMCs, 10 μM, 7 d
Description: (§1) For the bVSMCs a GAD medium (10 mM β-glycerophosphate/0.1 mM L-ascorbic acid-2-phosphate/10 nM dexamethasone) model was used to induce mineralization in bVSMCs. Accordingly, cells were seeded in tissue culture plates using M199/20% FCS culture medium and cultured overnight. The next day, cells were treated either with medium only (M199/5% FBS)+/−inhibitors, or with the GAD-medium (10 mM β-glycerophosphate/0.1 mM L-ascorbic acid-2-phosphate/[…] dexamethasone)+/−inhibitors.
Medium+/−inhibitors was exchanged every 2-3 days. […]
The o-Cresolphthalein assay is a spectrophotometric method for measuring Ca^2+-concentrations in cell/tissue lysates. Following the calcification experiments, cells are briefly washed to remove medium and 100 […]1 of 0.1 N HCl is added to each well to dissolve any mineral deposits. Then, the Ca^2+-concentration of the samples is measured spectrophotometrically (at 570 nm) in the o-cresolphthalein assay with the help of a CaCl2 standard curve in a concentration range of ˜0.02-270 µg Ca^2+/ml.
The commercial BioRad DC protein assay is based on the Lowry method, aka reaction of proteins with a copper-tartrate complex and subsequent reaction with Folin's reagent. Following the calcification experiment, cells are briefly washed to remove medium and 100 µl of solubilisation solution (0.1 M NaOH/1% SDS/DIW) is added to each well to lyse the cells. The protein concentrations of the lysates are subsequently determined in the BioRad DC assay as per supplier's instructions using BSA (bovine serum albumin) as standard.
The in vitro model is the same as the model used in example 4; bovine vascular smooth muscle cells (bVSMCs) cultured so that they produce extracellular matrix, with the addition of the GAD medium (10 mM β-glycerophosphate/0.1 mM L-ascorbic acid-2-phosphate/10 nM dexamethasone).
As above, cells were treated either with medium only (“no-additions”; NA)+/−inhibitors, or with the GAD-medium+/−inhibitors. The inhibitors used were PJ34 and minocyclin (MC) at 10 μM, 1 μM and 0.1 μM.
The methodology was the same as that described in example 4.

[2] = tested on: human vascular smooth muscle cells (hVSMCs); assay: o-Cresolphthalein Ca2+ assay, hVSMC Ca/P calcification model (Examples 7-9); assay type: cell-based
Description: (§2) Primary hVSMCs were cultured in M199 media containing FBS (M199/5% FBS). They were plated at a known cell density, allowed to grow for 24 hours and then treated with control (DMSO only) or calcification media (DMSO containing 2.7 mM Calcium+2.5 mM phosphate)+/−inhibitors. After 6 days, calcification was assessed using the o-Cresolphthalein assay for quantification of Ca^2+ deposition and a BioRad protein assay for protein content.
Medium+/−inhibitors was exchanged every 2-3 days.
as §2, with “8” for “6”, “using” for “using the”
All of the compounds tested were used at a concentration of 3 μM. Medium+/−inhibitors was exchanged every 2-3 days.
as §2, with “phosphate)+/−compounds.” for “phosphate)+/−inhibitors.”, “8” for “6”, “using” for “using the”
These concentrations were chosen to mimic the systemic concentrations of these drugs following patient dosing according to the dose schedule in the prescribing information for each drug. Medium+/−inhibitors was exchanged every 2-3 days.

[3] = tested on: bovine vascular smooth muscle cells (bVSMCs); assay type: cell-based; settings: 7 days; for Cell viability of bVSMCs after seven days (MTT signal, relative to control): mean of three experiments
Description: The toxicity of the identified compounds to bovine VSMCs was measured using the MTT assay, which measures the activity of dehydrogenase enzymes of live cells. This assay can pick up both cell death and proliferation.
Bovine VSMCs were seeded in 96 well plates and cultured in M199/20% FCS for 1 day. Then, the cells were incubated with inhibitor concentrations from 0.5 to 100 μM (in M199 medium+5% FBS). The cells were incubated with the inhibitors for 7 days; every 2-3 days the medium −/+inhibitors was exchanged. Then, the MTT assay was performed. The stock vehicle DMSO was tested at corresponding concentrations to the inhibitors at 0.1% DMSO or less.

[4] = tested on: human monocyte-macrophages (HMMs); assay: MTT toxicity assay, HMMs, seven days (Example 3); assay type: cell-based; settings: 7 days; for Cell viability by MTT, percent of control: mean of three experiments; for Toxicity to HMMs (in words): at a concentration of 100 μM
Description: A similar set of toxicity experiments was performed with human monocyte-macrophages (HMMs).

[5] = tested on: PARP produced by a mammalian cell; settings: have been shown; cited from earlier work
[6] = tested on: bovine vascular smooth muscle cells (bVSMCs); assay: Alizarin Red S staining, bVSMC GAD calcification model (Example 4); assay type: cell-based; settings: GAD-treated bVSMCs, 10 μM, 7 d, versus no inhibitor
Description: as §1
Medium+/−inhibitors was exchanged every 2-3 days. Bovine VSMCs were incubated for 7 d prior to assessment.
The Alizarin Red S staining is a visual/histological stain for tissue calcium deposits. Cells are briefly fixed in 4% paraformaldehyde/PIPES buffer pH 7.2 and subsequently stained for 5 min with Alizarin Red S (2% Alizarin Red S/DIW pH 4.2). Excess stain is removed by washing in DIW. Calcium mineral deposits are stained a bright orange red.

[7] = hVSMCs, 6 days, PJ34 10 μM, minocycline and cilostazol 0.5, 1 and 2 μM

## O=C1CCc2cc(OCCCCc3nnnn3C3CCCCC3)ccc2N1 [cilostazol]
[1]
  Calcium levels (mass of calcium, FIG. 7B) compared to no inhibitors: no effect
  Normalised calcium levels (mass of calcium per mass of protein, FIG. 9B): does not appear to have an effect
[2]; bovine cell and human cell in vitro vascular calcification model
  Extracellular matrix calcification (summary statement): significantly reduce extracellular matrix calcification
[2]; [7]
  Calcium levels (mass of calcium, FIG. 17) versus DMSO Ca+P positive control: reduce the calcium levels
  Normalised calcium levels (mass of calcium per mass of protein, FIG. 19): lower calcium levels significantly
[2]; hVSMCs, 8 days, 3 μM
  Normalised calcium levels (mass of calcium per mass of protein, FIG. 22): particularly effective
[2]; hVSMCs, 8 days, concentrations between 0.05 μM and 3 μM
  Inhibition of calcification, normalised results (FIG. 27): inhibit calcification significantly and repeatedly
[3]; 0.5 uM
  Cell viability of bVSMCs after seven days (MTT signal, relative to control): 98.22
[3]; 1 uM
  Cell viability of bVSMCs after seven days (MTT signal, relative to control): 93.93
[3]; 2 uM
  Cell viability of bVSMCs after seven days (MTT signal, relative to control): 86.31*
[3]; 5 uM
  Cell viability of bVSMCs after seven days (MTT signal, relative to control): 86.87*
[3]; 10 uM
  Cell viability of bVSMCs after seven days (MTT signal, relative to control): 88.38*
[3]; 20 uM
  Cell viability of bVSMCs after seven days (MTT signal, relative to control): 90.45*
[3]; 50 uM
  Cell viability of bVSMCs after seven days (MTT signal, relative to control): 84.93*
[3]; 100 uM
  Cell viability of bVSMCs after seven days (MTT signal, relative to control): 65.21*
[3]; at 50 and 100 μM
  Toxicity to bVSMCs (MTT assay, in words): toxic
[4]; 0.5 uM
  Cell viability by MTT, percent of control: 105.05
[4]; 1 uM
  Cell viability by MTT, percent of control: 103.62
[4]; 2 uM
  Cell viability by MTT, percent of control: 75.63
[4]; 5 uM
  Cell viability by MTT, percent of control: 90.74
[4]; 10 uM
  Cell viability by MTT, percent of control: 79.83
[4]; 20 uM
  Cell viability by MTT, percent of control: 81.50
[4]; 50 uM
  Cell viability by MTT, percent of control: 73.73
[4]; 100 uM
  Cell viability by MTT, percent of control: 77.06
[4]
  Toxicity to HMMs (in words): relatively innocuous

## NC(=O)c1cccc(N)c1 [3-AB, 3-aminobenzamide]
[1]
  Calcium levels (mass of calcium, FIG. 7B) compared to no inhibitors: no effect
  Normalised calcium levels (mass of calcium per mass of protein, FIG. 9B): slightly lower calcium levels
[5]
  Inhibition of PARP produced by a mammalian cell: inhibit PARP
[3]; 0.5 uM
  Cell viability of bVSMCs after seven days (MTT signal, relative to control): 95.77
[3]; 1 uM
  Cell viability of bVSMCs after seven days (MTT signal, relative to control): 99.58
[3]; 2 uM
  Cell viability of bVSMCs after seven days (MTT signal, relative to control): 94.53
[3]; 5 uM
  Cell viability of bVSMCs after seven days (MTT signal, relative to control): 93.35*
[3]; 10 uM
  Cell viability of bVSMCs after seven days (MTT signal, relative to control): 91.99*
[3]; 20 uM
  Cell viability of bVSMCs after seven days (MTT signal, relative to control): 93.42*
[3]; 50 uM
  Cell viability of bVSMCs after seven days (MTT signal, relative to control): 94.64
[3]; 100 uM
  Cell viability of bVSMCs after seven days (MTT signal, relative to control): 92.48*
[3]; at the concentrations tested (0.5 to 100 μM)
  Toxicity to bVSMCs (MTT assay, in words): virtually non-toxic
[4]; 0.5 uM
  Cell viability by MTT, percent of control: 115.25
[4]; 1 uM
  Cell viability by MTT, percent of control: 80.78
[4]; 2 uM
  Cell viability by MTT, percent of control: 88.03
[4]; 5 uM
  Cell viability by MTT, percent of control: 93.51
[4]; 10 uM
  Cell viability by MTT, percent of control: 97.34
[4]; 20 uM
  Cell viability by MTT, percent of control: 85.76
[4]; 50 uM
  Cell viability by MTT, percent of control: 95.92
[4]; 100 uM
  Cell viability by MTT, percent of control: 104.20
[4]
  Toxicity to HMMs (in words): relatively innocuous

## OCCN(CCO)c1nc(N2CCCCC2)c2nc(N(CCO)CCO)nc(N3CCCCC3)c2n1 [Dipyridamol, dipyridamol]
[1]
  Calcium levels (mass of calcium, FIG. 7B) compared to no inhibitors: elevate calcium levels
  Normalised calcium levels (mass of calcium per mass of protein, FIG. 9B): elevate calcium levels
[6]
  Degree of mineralization judged by eye (Alizarin Red S, FIG. 6): slightly worse
[3]; at 50 and 100 μM
  Toxicity to bVSMCs (MTT assay, in words): toxic
